In patent publication US8598145B2, “Mitochondrially delivered anti-cancer compounds” (priority 2008, dated 2013):

Key:
Assay type in all cases: cell-based, human
[1] = test system: adherent MCF7 cells; assay: ROS production by flow cytometry, adherent cells (FIG. 8); conditions: 3 h; α-TOS 50 μM, MitoVES homologues 5 μM
Experimental: (§1) Adherent MCF7 cells and the corresponding mammosphere cells (MS) were cultured and assessed for morphological changes by microscopy (A) and for expression levels of markers as indicators of “sternness” by RT-PCR (B) and flow cytometry (C), including the expression of CD44 and CD24 (D). The adherent MCF7 cells (E) and the MS cells (F) were treated with 5 μM MitoVES, 50 μM α-TOS or 10 μM parthenolide and assessed for their sensitivity to drug induced cell death. […] Adherent MCF7 cells (I) and MS cells (J) were treated for 3 h with α-TOS (50 μM) or MitoVES homologues containing different lengths in the aliphatic side chain (5 μM each, either 11, 7 or 5 carbon chain in length) and the treated cells assessed for production of reactive oxygen species (ROS) by flow cytometry.
Cellular ROS were detected indirectly by flow cytometry and directly by electron paramagnetic resonance (EPR) spectroscopy, following treatment of cells with α-TOS as indicated in the Legend to Figures. […] For indirect evaluation, cells were treated with α-TOS and reacted with dihydrodichlorofluorescein diacetate (DCF; Molecular Probes) for 30 min, and scored by flow cytometry for cells with high fluorescence, which was evaluated on the bases on increase in mean fluorescence intensity. […]

[2] = test system: Bax/Bak double knockout Jurkat cell line; assay: Apoptosis assay of FIG. 3B; conditions: α-TOS 50 μM, MitoVES 5 μM
Experimental: 3B—Parental, Bax^−/− and […] Jurkat cells were exposed to α-TOS (T) at 50 μM and MitoVES (M) 5 μM, and apoptosis assessed.
Toxicity of α-TOS, VE11S (“VES”), MitoVE3S, MitoVE5S, MitoVE7S, MitoVE9S, MitoVE11S (“MitoVES”), MitoVE11AE (“MitoVEAE”), MitoVE11F (“MitoVEF”), MitoVE11M (“MitoVEM”), and VES4TPP towards cancer cells was assessed on the basis of IC50, as detailed in Turanek, J., et al. ((2008). Liposomal formulation of vitamin E analogs as an efficient and selective anti-cancer treatment. Clin. Cancer Res. (submitted)). Apoptosis was assessed using the Annexin V method (Weber, T. et al. Mitochondria play a central role in apoptosis induced by α-tocopheryl succinate, an agent with anticancer activity. Comparison with receptor-mediated pro-apoptotic signaling. Biochemistry 42, 4277-4291 (2003)) and dissipation of the mitochondrial inner transmembrane potential was estimated using the polychromatic probe JC-1 (Molecular Probes) (Weber, T. et al. Mitochondria play a central role in apoptosis induced by α-tocopheryl succinate, an agent with anticancer activity. Comparison with receptor-mediated pro-apoptotic signaling. Biochemistry 42, 4277-4291 (2003)).

[3] = test system: MS cells derived from MCF7 cells; assay: Drug induced cell death in mammosphere cells (FIG. 8); conditions: for sensitivity of MS cells to drug induced cell death: 5 μM MitoVES, 50 μM α-TOS or 10 μM parthenolide
Experimental: as §1

[4] = test system: adherent MCF7 cells; assay: Drug induced cell death in adherent MCF7 cells (FIG. 8); conditions: 5 μM MitoVES, 50 μM α-TOS or 10 μM parthenolide
Experimental: as §1

Row | Structure (SMILES) | ROS production in adherent MCF7 cells [1] | apoptosis in Bax/Bak double deficient Jurkat cells [2] | sensitivity of MS cells to drug induced cell death [3] | sensitivity of adherent MCF7 cells to drug induced cell death [4] | apoptosis of MS cells ([3]; within 5-6 h after adding the drug)
1 | Cc1c(C)c2c(c(C)c1OC(=O)CCC(=O)O)CC[C@@](C)(CCC[C@H](C)CCC[C@H](C)CCCC(C)C)O2 [α-TOS, α-tocopheryl succinate, reference compound] | significant production of ROS | still mediates some level of killing | resistant | sensitive to killing | –
2 | Cc1c(C)c2c(c(C)c1OC(=O)CCC(=O)[O-])CCC(C)(CCCCCCCCCCC[P+](c1ccccc1)(c1ccccc1)c1ccccc1)O2 (stereo not drawn) [MitoVE11S] | greater ROS accumulation | extremely resistant | very sensitive | more so | > 90%
